Like-named read-outs stand apart in the source and are kept apart here. Where a SMILES comes first, the peptide text is derived from it. Where no end group is shown, it is not given here. [ ]: non-standard residue; d: D form. pY = N[CH](Cc1ccc(OP(=O)(O)O)cc1)C(=O)O; pT = C[CH](OP(=O)(O)O)[CH](N)C(=O)O; pS = N[CH](COP(=O)(O)O)C(=O)O
T1: feline calcium-sensing receptor (CaSR) (feline (cat))
T1 chain: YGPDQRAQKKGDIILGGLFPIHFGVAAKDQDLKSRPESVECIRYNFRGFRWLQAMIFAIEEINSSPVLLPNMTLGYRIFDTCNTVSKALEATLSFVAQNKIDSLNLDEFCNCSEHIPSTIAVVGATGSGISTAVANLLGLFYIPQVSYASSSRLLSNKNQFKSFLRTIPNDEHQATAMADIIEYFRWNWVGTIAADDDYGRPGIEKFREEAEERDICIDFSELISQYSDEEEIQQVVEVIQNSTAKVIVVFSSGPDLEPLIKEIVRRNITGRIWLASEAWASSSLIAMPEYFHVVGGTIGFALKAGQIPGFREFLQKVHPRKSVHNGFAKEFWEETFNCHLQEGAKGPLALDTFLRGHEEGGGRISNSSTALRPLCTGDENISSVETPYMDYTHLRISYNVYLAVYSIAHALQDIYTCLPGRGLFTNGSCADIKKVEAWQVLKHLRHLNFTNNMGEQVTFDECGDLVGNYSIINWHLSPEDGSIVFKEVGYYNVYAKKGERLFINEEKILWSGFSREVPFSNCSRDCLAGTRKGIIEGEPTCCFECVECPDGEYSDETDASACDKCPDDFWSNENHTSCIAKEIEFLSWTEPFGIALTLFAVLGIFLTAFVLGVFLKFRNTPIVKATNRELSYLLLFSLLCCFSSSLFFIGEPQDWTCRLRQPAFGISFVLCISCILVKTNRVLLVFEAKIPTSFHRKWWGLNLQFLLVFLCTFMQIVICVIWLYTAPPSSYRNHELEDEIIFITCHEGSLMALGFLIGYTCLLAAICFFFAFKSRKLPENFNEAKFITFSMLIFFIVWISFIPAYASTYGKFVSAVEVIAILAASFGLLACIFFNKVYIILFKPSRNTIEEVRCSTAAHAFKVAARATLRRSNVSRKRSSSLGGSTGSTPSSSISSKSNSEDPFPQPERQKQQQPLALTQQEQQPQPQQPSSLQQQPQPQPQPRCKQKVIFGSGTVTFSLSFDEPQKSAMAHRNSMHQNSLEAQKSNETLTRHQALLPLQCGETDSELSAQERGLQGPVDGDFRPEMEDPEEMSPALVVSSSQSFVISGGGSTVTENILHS


Columns and labels:
[1] = molecular target: feline calcium-sensing receptor (CaSR) (feline (cat)); test: cell-based or functional assay
[2] = molecular target: feline CaSR (Felis catus, UniProt A0ABI7YY68); test: HEK T-Rex/natClytin-fCaSR luminescence assay, activation of feline CaSR; assay type: cell-based
Description: The cells used for the assays were HEK293 derived HEK T-Rex/natClytin-fCaSR cells. For the assays, the cells were plated on […] culture plates with a clear bottom for reading the luminescence in the wells. The setup of the assay for standard assays on the FlexStation was as follows. The wells containing the cells had 20 ul of calcium-free Tyrode's buffer at the beginning of the assay. 20 ul of each ligand at a specified concentration was injected on the cells and the response of the cells was measured for 90 sec at 1.94 sec intervals. The resulting curves were analyzed and reduced using the software provided by Molecular Devices, SoftMax Pro (version 5.4.1).
Each peptide was assayed on two separate occasions at least, with four repetitions of each concentration applied to the cells. In parallel, the same tests were run on a mock cell line with a mock vector, in order to confirm the specificity of any signals measured.
The data obtained from the FlexStation was used to trace dose-response curves for each ligand. These graphs were plotted using GraphPad Prism 7.03 software with the [Agonist] vs. response—Variable slope (four parameters) plot. The same formula was used to calculate the EC50 value with the associated Standard Error. Each plot contains the mean data points with an SEM calculated by the software for each data point.
One of the concerns during the planning of these assays was that it was possible that some of these peptides could bind the divalent calcium cation and cause a non-specific response from the receptor. In order to ensure that the interaction between the receptor and the peptides was measured and not with calcium, the peptides were synthesized in guaranteed calcium-free conditions. Similarly, all the assays were performed using calcium-free reagents.

[3] = molecular target: feline Kokumi taste receptor (f-CaSR); test: feline Kokumi taste receptor assay (f-CaSR), agonistic activity of isolated samples; assay type: cell-based; settings: isolated samples from hydrolysate T648
Description: Aliquots of the isolated samples were tested for their agonistic activity in feline Kokumi taste receptor assays (f-CaSR).

[4] = molecular target: T1, feline calcium-sensing receptor (CaSR); test: cell-based or functional assay
[5] = HEK T-Rex/natClytin-fCaSR cells, calcium-free Tyrode's buffer, ≈ values are model estimates without standard error, read-out: EC50 ± Std Error

EC50 [2, 5]	Molecule	EC50 [2]	also measured
~7.8 mM	N[C@@H](CCC(=O)N[C@@H](Cc1ccccc1)C(=O)O)C(=O)O [γ-Glu-Phe, reference compound]		
6.72 ± 0.13 mM	[Cl-].[Cl-].[Mg+2] [MgC12, reference compound]		
6.71 ± 0.57 mM	N[C@@H](CCC(=O)N[C@@H](CS)C(=O)NCC(=O)O)C(=O)O [GSH, reference compound]		
~3.9 mM	CC(C)[C@H](NC(=O)CC[C@H](N)C(=O)O)C(=O)O [γ-Glu-Val, reference compound]		
~6.9 mM	N[C@@H](CCC(=O)N[C@@H](Cc1ccc(O)cc1)C(=O)O)C(=O)O [γ-Glu-Tyr, reference compound]		
~6.1 mM	N[C@@H](CC(=O)O)C(=O)O [Asp, aspartic acid, reference compound]		
~6.7 mM	CSCC[C@H](NC(=O)CC[C@H](N)C(=O)O)C(=O)O [γ-Glu-Met, reference compound]		
2.63 ± 0.04 mM	CC(C)C(NC(=O)C(N)COP(=O)(O)O)C(=O)NC(COP(=O)(O)O)C(=O)O (stereo not drawn) [pSer-Val-pSer] (H-[pS]-Val-[pS]-OH; configuration not given here)		
1.98 ± 0.07 mM	CC(OP(=O)(O)O)C(N)C(=O)NC(CCC(=O)O)C(=O)NC(C(=O)O)C(C)OP(=O)(O)O (stereo not drawn) [pThr-Glu-pThr] (H-[pT]-Glu-[pT]-OH; configuration not given here)		
3.04 ± 0.21 mM	NC(COP(=O)(O)O)C(=O)NC(CCC(=O)O)C(=O)NC(COP(=O)(O)O)C(=O)O (stereo not drawn) [pSer-Glu-pSer] (H-[pS]-Glu-[pS]-OH; configuration not given here)		

Second part, the molecule before the results:

Molecule	EC50 [2, 5]	EC50 [2]	also measured
DIG[pS]E[pS]TEDQA			f-CaSR activity (EC50) [1]: 2 mM
CC(C)C(NC(=O)C(N)CCC(=O)O)C(=O)NC(CCC(=O)O)C(=O)O (stereo not drawn) [Glu-Val-Glu] (H-Glu-Val-Glu-OH; configuration not given here)		3.54 ± 0.05 mM	
CC[C@H](C)[C@H](NC(=O)[C@@H](N)CCC(=O)O)C(=O)N[C@H](C(=O)N1CCC[C@H]1C(=O)N[C@@H](CC(N)=O)C(=O)N[C@@H](COP(=O)(O)O)C(=O)N[C@@H](C)C(=O)N[C@@H](CCC(=O)O)C(=O)N[C@@H](CCC(=O)O)C(=O)O)C(C)C [BC 09, Glu-Ile-Val-Pro-Asn-pSer-Ala-Glu-Glu] (H-EIVPN[pS]AEE-OH; N-terminus and C-terminus assumed)			EC50 [3]: 3.16 mM
CC(NC(=O)C(N)CC(=O)O)C(=O)NC(CCC(=O)O)C(=O)O (stereo not drawn) [Asp-Ala-Glu] (H-Asp-Ala-Glu-OH; configuration not given here)		3.54 ± 0.05 mM	
IG[pS]E[pS]TEDQ			f-CaSR activity (EC50) [1]: 2 mM
EIVPN[pS]AEE			f-CaSR activity (EC50) [1]: 3.16 mM
IG[pS]E[pS]TEDQA			f-CaSR activity (EC50) [1]: 2 mM
[Ca+2].[Cl-].[Cl-] [CaC12, CaCl2, reference compound]	1.6 ± 0.06 mM		
NC(CC(=O)O)C(=O)NC(CCC(=O)O)C(=O)NC(CCC(=O)O)C(=O)O (stereo not drawn) [Asp-Glu-Glu] (H-Asp-Glu-Glu-OH; configuration not given here)		2.59 ± 0.09 mM	
CC(C)C(NC(=O)C(N)CC(=O)O)C(=O)NC(CC(=O)O)C(=O)O (stereo not drawn) [Asp-Val-Asp] (H-Asp-Val-Asp-OH; configuration not given here)		3.41 ± 0.05 mM	
CC[C@H](C)[C@H](N)C(=O)NCC(=O)N[C@@H](COP(=O)(O)O)C(=O)N[C@@H](CCC(=O)O)C(=O)N[C@@H](COP(=O)(O)O)C(=O)N[C@H](C(=O)N[C@@H](CCC(=O)O)C(=O)N[C@@H](CC(=O)O)C(=O)N[C@@H](CCC(N)=O)C(=O)O)[C@@H](C)O [BC 06, Ile-Gly-pSer-Glu-pSer-Thr-Glu-Asp-Gln] (H-IG[pS]E[pS]TEDQ-OH; N-terminus and C-terminus assumed)		~1.6 mM	EC50 [3]: 2 mM
NC(CO)C(=O)NC(CCC(=O)O)C(=O)NC(CO)C(=O)O (stereo not drawn) [Ser-Glu-Ser] (H-Ser-Glu-Ser-OH; configuration not given here)		3.56 ± 0.11 mM	
CC(C)C(NC(=O)C(N)COP(=O)(O)O)C(=O)NC(CCC(=O)O)C(=O)O (stereo not drawn) [pSer-Val-Glu] (H-[pS]-Val-Glu-OH; configuration not given here)		3.04 ± 0.03 mM	
NC(Cc1ccc(OP(=O)(O)O)cc1)C(=O)NC(CCC(=O)O)C(=O)NC(Cc1ccc(OP(=O)(O)O)cc1)C(=O)O (stereo not drawn) [pTyr-Glu-pTyr] (H-[pY]-Glu-[pY]-OH; configuration not given here)		2.22 ± 0.22 mM	
CC(C)C(NC(=O)C(N)CC(=O)O)C(=O)NC(CCC(=O)O)C(=O)O (stereo not drawn) [BC 01, Asp-Val-Glu] (H-Asp-Val-Glu-OH; configuration not given here)		3.3 ± 0.15 mM	EC50 [3]: 6.32 mM
CC[C@H](C)[C@H](NC(=O)[C@@H](N)CC(=O)O)C(=O)NCC(=O)N[C@@H](COP(=O)(O)O)C(=O)N[C@@H](CCC(=O)O)C(=O)N[C@@H](COP(=O)(O)O)C(=O)N[C@H](C(=O)N[C@@H](CCC(=O)O)C(=O)N[C@@H](CC(=O)O)C(=O)N[C@@H](CCC(N)=O)C(=O)N[C@@H](C)C(=O)O)[C@@H](C)O [BC 10, Asp-Ile-Gly-pSer-Glu-pSer-Thr-Glu-Asp-Gln-Ala] (H-DIG[pS]E[pS]TEDQA-OH; N-terminus and C-terminus assumed)			EC50 [3]: 2 mM
CC(C)C(NC(=O)C(N)CCC(=O)O)C(=O)NC(CC(=O)O)C(=O)O (stereo not drawn) [Glu-Val-Asp]		3.32 ± 0.77 mM	
CC(C)C(NC(=O)C(N)CS)C(=O)NC(CS)C(=O)O (stereo not drawn) [Cys-Val-Cys] (H-Cys-Val-Cys-OH; configuration not given here)		~12.6 mM	
CC(C)[C@H](NC(=O)CC[C@H](N)C(=O)O)C(=O)NCC(=O)O [γ-Glu-Val-Gly, reference compound]		5.78 ± 2.41 mM	
CC[C@H](C)[C@H](N)C(=O)NCC(=O)N[C@@H](COP(=O)(O)O)C(=O)N[C@@H](CCC(=O)O)C(=O)N[C@@H](COP(=O)(O)O)C(=O)N[C@H](C(=O)N[C@@H](CCC(=O)O)C(=O)N[C@@H](CC(=O)O)C(=O)N[C@@H](CCC(N)=O)C(=O)N[C@@H](C)C(=O)O)[C@@H](C)O [BC 08, Ile-Gly-pSer-Glu-pSer-Thr-Glu-Asp-Gln-Ala] (H-IG[pS]E[pS]TEDQA-OH; N-terminus and C-terminus assumed)			EC50 [3]: 2 mM
5-oxoproline-Lys-Glu-Pro [BC 02]			f-CaSR activity (EC50) [3]: Not active
N[C@@H](CCC(=O)O)C(=O)O [Glu, glutamic acid, reference compound]		~5.9 mM	
DVE [Asp-Val-Glu]			f-CaSR activity (EC50) [4]: 6.32 mM
